According to US11845746B1 (priority 2023, dated 2023):

Structure (SMILES)	melting point [°C]
CCOC(=O)c1cc(C(=O)c2ccc(C)cc2)n2c1ccc1cc(C)ccc12	155 to 156
CCOC(=O)c1cc(C(=O)c2cc(C(F)(F)F)cc(C(F)(F)F)c2)n2c1ccc1cc(C)ccc12 [Compound 4f, Ethyl 1-(3,5-bis(trifluoromethyl)benzoyl)-7-methylpyrrolo[1,2-a]quinoline-3-carboxylate]	223 to 224
CCOC(=O)c1cc(C(=O)c2ccccc2)n2c1ccc1cc(C)ccc12	139 to 140
CCOC(=O)c1cc(C(=O)c2ccc(Br)cc2)n2c1ccc1cc(C)ccc12 [Compound 4e, Ethyl 1-(4-bromobenzoyl)-7-methylpyrrolo[1,2-a]quinoline-3-carboxylate]	180 to 181
CCOC(=O)c1cc(C(=O)c2ccc(F)cc2)n2c1ccc1cc(C)ccc12	163 to 164
CCOC(=O)c1cc(C(=O)c2ccccc2[N+](=O)[O-])n2c1ccc1cc(C)ccc12 [Compound 4d, Ethyl 7-methyl-1-(2-nitrobenzoyl)pyrrolo[1,2-a]quinoline-3-carboxylate]	174 to 175
